This test deals with T1, Kv7.2 (Homo sapiens, UniProt O43526).
T1 construct: expressed in transfected cells
As to the kind of experiment: Activation of Kv7.2 (in vitro assay, concentration response curve). The class given is cell-based. As to conditions: for Emax: Kv7.2 activation max %; for EC50: activation of Kv7.2. The protocol: The term “EC50” in this application is defined as: the agonistic effect of a compound can be determined by testing the compound in an in vitro assay as described herein, whereby the effect of the compound is measured across a range of compound concentrations. The resulting data is plotted as a concentration response curve, which typically follows a sigmoidal function, whereby the concentration of the compound is plotted on the x axis and the response (agonistic effect) is plotted on the y axis. The term “EC50” is the “half maximal effective concentration” and denotes the concentration of a particular compound required to obtain 50% of the maximum response (Emax) which is observed for that compound in the given in vitro assay.

In turn, `O=C(NCc1ccnc(OC(F)F)c1)N[C@@H]1[C@H]2CCC(F)(F)[C@H]21` (racemic) [Example 172, 1-[[2-(difluoromethoxy)pyridin-4-yl]methyl]-3-[rac-(1R,5S,6R)-2,2-difluoro-6-bicyclo[3.1.0]hexanyl]urea] came in with an Emax of 66% and an EC50 of 460 nM.
As to `O=C(NCc1ccnc(OCF)c1)N[C@@H]1[C@H]2CCC(F)(F)[C@H]21` (racemic) [Example 176, 1-[[2-(fluoromethoxy)pyridin-4-yl]methyl]-3-[rac-(1R,5S,6R)-2,2-difluoro-6-bicyclo[3.1.0]hexanyl]urea], the Emax was found to be 62% and the response was half-maximal at 890 nM (EC50).
The like results for `O=C(NCc1ccnc(OC(F)F)c1)N[C@H]1CC[C@](O)(C(F)(F)F)C1` (racemic) [Example 187, 1-[[2-(difluoromethoxy)pyridin-4-yl]methyl]-3-[rac-(1R,3S)-3-hydroxy-3-(trifluoromethyl)cyclopentyl]urea] were, in that order, 40% and 1140 nM.
On the same counts, the results for `O=C(NCc1ccnc(OC(F)F)c1)N[C@@H]1CC[C@H](C(F)F)C1` (racemic) [Example 193, 1-[[2-(difluoromethoxy)pyridin-4-yl]methyl]-3-[rac-(1R,3S)-3-(difluoromethyl)cyclopentyl]urea] are 48% and 220 nM.
On to `O=C(NCc1ccnc(OC(F)F)c1)NC1CC[C@@H]2CC[C@H]12` (mixture of isomers) [Example 196, 1-[[2-(difluoromethoxy)pyridin-4-yl]methyl]-3-[rac-(1R,5R)-2-bicyclo[3.2.0]heptanyl]urea], for which the Emax stood at 75% and the EC50 was found to be 70 nM.
On the same counts, the results for `O=C(NCc1ccnc(OC(F)F)c1)NC1C2CCC1CC(F)(F)C2` (racemic) [Example 197, 1-[[2-(difluoromethoxy)pyridin-4-yl]methyl]-3-[rac-(1R,5S)-3,3-difluoro-8-bicyclo[3.2.1]octanyl]urea] are 54% and 500 nM.
In turn, `O=C(NCc1ccnc(OCC(F)CF)c1)N[C@H]1CC[C@@H](C(F)(F)F)C1` (mixture of isomers) [Example 225, 1-[[2-(2,3-difluoropropoxy)pyridin-4-yl]methyl]-3-[rac-(1R,3S)-3-(trifluoromethyl)cyclopentyl]urea] returned a maximal effect (Emax) of 52% and an EC50 of 310 nM.
`O=C(NCc1ccnc(OC(F)F)c1)NC1C[C@@H](F)[C@@H](F)C1` (mixture of isomers) [Example 234, 1-[[2-(difluoromethoxy)pyridin-4-yl]methyl]-3-[rac-(3R,4S)-3,4-difluorocyclopentyl]urea] yielded an Emax of 56% and an EC50 of 4270 nM.
Take `O=C(NCc1ccnc(OC(F)F)c1)N[C@@H]1C[C@H]2C[C@@H]1C(F)(F)C2` (racemic) [Example 236, 1-[[2-(difluoromethoxy)pyridin-4-yl]methyl]-3-[rac-(1R,2S,4S)-6,6-difluoro-2-bicyclo[2.2.1]heptanyl]urea]: the Emax stood at 87% and the EC50 is 460 nM.
On the same counts, the results for `O=C(NCc1ccnc(OC(F)F)c1)N[C@@H]1CC[C@@H]1C(F)(F)F` (racemic) [Example 255, 1-[[2-(difluoromethoxy)pyridin-4-yl]methyl]-3-[rac-(1R,2S)-2-(trifluoromethyl)cyclobutyl]urea] are 78% and 2570 nM.
On the same counts, the results for `O=C(NCc1ccnc(CC(F)(F)F)c1)N[C@H]1CCC[C@@H](C(F)(F)F)C1` (racemic) [Example 276, 1-[rac-(1R,3S)-3-(trifluoromethyl)cyclohexyl]-3-[[2-(2,2,2-trifluoroethyl)pyridin-4-yl]methyl]urea] are 62% and 540 nM.
On the same counts, the results for `O=C(NCc1ccnc(OC(F)F)c1)N[C@@H]1CC[C@@H](C(F)(F)F)C1` (single isomer, unassigned) [Example 206] are 75% and 490 nM.
`O=C(NCc1ccnc(OC(F)F)c1)N[C@H]1CC[C@H](C(F)(F)F)C1` (single isomer, unassigned) [Example 207] returned an Emax of 58% and an EC50 of 230 nM.
On to `O=C(Nc1cccc(Cl)c1)NC(CO)c1ccnc(OC(F)F)c1` (single isomer, unassigned) [Example 263], for which the Emax is 73% and the EC50 came out at 310 nM.
The like results for `O=C(NC(CO)c1ccnc(OC(F)F)c1)N[C@@H]1COc2ccccc2C1` (stereo in doubt) [Example 278, rel-1-[1-[2-(difluoromethoxy)pyridin-4-yl]-2-hydroxyethyl]-3-[(3S)-3,4-dihydro-2H-chromen-3-yl]urea] were, in that order, 52% and 430 nM.
The compound `O=C(NCc1ccnc(-n2cccn2)c1)N[C@@H]1CCOc2ccccc21` [Example 1, 1-[(4R)-3,4-dihydro-2H-chromen-4-yl]-3-[(2-pyrazol-1-ylpyridin-4-yl)methyl]urea] came in with an Emax of 54% and an EC50 of 2420 nM.
`O=C(NCc1ccnc(-n2cccn2)c1)NC1CCCC1` [Example 2, 1-cyclopentyl-3-[(2-pyrazol-1-ylpyridin-4-yl)methyl]urea] came in with an Emax of 74% and an EC50 of 4400 nM.
On the same counts, the results for `O=C(NCc1ccnc(-n2cccn2)c1)Nc1cccc(Cl)c1` [Example 4, 1-(3-chlorophenyl)-3-[(2-pyrazol-1-ylpyridin-4-yl)methyl]urea] are 60% and 430 nM.
The like results for `CC1CC(C)(C)CCC1NC(=O)NCc1ccnc(C#N)c1` (centres unmarked) [Example 5, 1-[(2-cyanopyridin-4-yl)methyl]-3-(2,4,4-trimethylcyclohexyl)urea] were, in that order, 60% and 3690 nM.
On the same counts, the results for `O=C(NCc1ccnc(-n2cccn2)c1)NC12CC(C(F)(F)F)(C1)C2` [Example 6, 1-[(2-pyrazol-1-ylpyridin-4-yl)methyl]-3-[3-(trifluoromethyl)-1-bicyclo[1.1.1]pentanyl]urea] are 58% and 1140 nM.
In turn, `O=C(NCc1ccnc(-n2ccnc2)c1)NC1CCCC(C2CC2)C1` (centres unmarked) [Example 8, 1-(3-cyclopropylcyclohexyl)-3-[(2-imidazol-1-ylpyridin-4-yl)methyl]urea] gave an Emax of 52% and an EC50 of 1520 nM.
On the same counts, the results for `CC1CC(C)(C)CCC1NC(=O)NCc1ccnc(-n2ccnc2)c1` (centres unmarked) [Example 9, 1-[(2-imidazol-1-ylpyridin-4-yl)methyl]-3-(2,4,4-trimethylcyclohexyl)urea] are 53% and 700 nM.
Compound `O=C(NCCC1=CCCCC1)NCc1ccnc(-n2cccn2)c1` [Example 10, 1-[2-(cyclohexen-1-yl)ethyl]-3-[(2-pyrazol-1-ylpyridin-4-yl)methyl]urea] registered an Emax of 54% and an EC50 of 1390 nM.
The like results for `O=C(NCc1ccnc(OC(F)F)c1)NCC1CCC1` [Example 13, 1-(cyclobutylmethyl)-3-[[2-(difluoromethoxy)pyridin-4-yl]methyl]urea] were, in that order, 56% and 330 nM.
The like results for `O=C(NCc1ccnc(-n2cccn2)c1)N[C@H]1C[C@@H]2CC[C@H]1C2` [Example 15, 1-[(1S,2S,4R)-2-bicyclo[2.2.1]heptanyl]-3-[(2-pyrazol-1-ylpyridin-4-yl)methyl]urea] were, in that order, 78% and 380 nM.

As a reminder, the Emax is the size of the effect at its maximum, as opposed to the concentration needed. The EC50 is the concentration at which the effect is half-maximal. A high value points to weaker potency.

The values above are taken from patent US20250074901A1, “NOVEL HETEROARYL COMPOUNDS” (ICAGEN, LLC, priority 2021, published 2025).
